In paper PMC12736255, “Reinvestigating Pyrrol-2-One-Based Compounds: From Antimicrobial Agents to Promising Antitumor Candidates” (Pharmaceuticals, 2025):

How the values were obtained:
Experiment in all cases: NCI-60 single-dose screen
Format in all cases: cell-based
786-0 = conditions: Homo sapiens; 786-0, 10^–5 M; read-out: GI (%)
From the text: (§1) In the next step, all synthesized compounds were electronically submitted and accepted for testing to the National Cancer Institute (NCI) platform, for the single dose (10^−5 M) screening against a panel of 60 human tumor cell lines, representing leukemia, melanoma, and cancers of the lung, colon, central nervous system, ovary, kidney, prostate, and breast. The results are summarized in Table 2, with the best values highlighted in red (Figures S1–S14).

A498 = conditions: Homo sapiens; A498, 10^–5 M; read-out: GI (%)
From the text: as §1

A549/ATCC = conditions: Homo sapiens, 10^–5 M, read-out: GI (%)
From the text: as §1

ACHN = conditions: Homo sapiens, 10^–5 M, read-out: GI (%)
From the text: as §1

CAKI-1 = conditions: Homo sapiens; CAKI-1, 10^–5 M; read-out: GI (%)
From the text: as §1

CCRF-CEM = conditions: Homo sapiens, 10^–5 M, read-out: GI (%)
From the text: as §1

COLO205 = conditions: Homo sapiens, COLO 205; COLO205, 10^–5 M; read-out: GI (%)
From the text: as §1

DU-145 = conditions: Homo sapiens; DU-145, 10^–5 M; read-out: GI (%)
From the text: as §1

HCT-116 = conditions: Homo sapiens; HCT-116, 10^–5 M; read-out: GI (%)
From the text: as §1

HCT-15 = conditions: Homo sapiens; HCT-15, 10^–5 M; read-out: GI (%)
From the text: as §1

HS 578T = conditions: Homo sapiens, 10^–5 M, read-out: GI (%)
From the text: as §1

HT-29 = conditions: Homo sapiens; HT-29, 10^–5 M; read-out: GI (%)
From the text: as §1

KM12 = conditions: Homo sapiens; KM12, 10^–5 M; read-out: GI (%)
From the text: as §1

LOX IMVI = conditions: Homo sapiens, 10^–5 M, read-out: GI (%)
From the text: as §1

M14 = conditions: Homo sapiens; M14, 10^–5 M; read-out: GI (%)
From the text: as §1

MALME-3M = conditions: Homo sapiens, 10^–5 M, read-out: GI (%)
From the text: as §1

MCF7 = conditions: Homo sapiens; MCF7, 10^–5 M; read-out: GI (%)
From the text: as §1

MDA-MB-231/ATCC = conditions: Homo sapiens, 10^–5 M, read-out: GI (%)
From the text: as §1

MDA-MB-435 = conditions: Homo sapiens; MDA-MB-435, 10^–5 M; read-out: GI (%)
From the text: as §1

MOLT-4 = conditions: Homo sapiens; MOLT-4, 10^–5 M; read-out: GI (%)
From the text: as §1

NCI-H23 = conditions: Homo sapiens; NCI-H23, 10^–5 M; read-out: GI (%)
From the text: as §1

NCI-H522 = conditions: Homo sapiens; NCI-H522, 10^–5 M; read-out: GI (%)
From the text: as §1

NCI/ADR-RES = conditions: Homo sapiens, 10^–5 M, read-out: GI (%)
From the text: as §1

OVCAR-3 = conditions: Homo sapiens; OVCAR-3, 10^–5 M; read-out: GI (%)
From the text: as §1

OVCAR-4 = conditions: Homo sapiens; OVCAR-4, 10^–5 M; read-out: GI (%)
From the text: as §1

OVCAR-5 = conditions: Homo sapiens; OVCAR-5, 10^–5 M; read-out: GI (%)
From the text: as §1

PC-3 = conditions: Homo sapiens, PC-3, PC-3, 10^–5 M; read-out: GI (%)
From the text: as §1

RPMI-8226 = conditions: Homo sapiens; RPMI-8226, 10^–5 M; read-out: GI (%)
From the text: as §1

SF-268 = conditions: Homo sapiens; SF-268, 10^–5 M; read-out: GI (%)
From the text: as §1

SF-539 = conditions: Homo sapiens; SF-539, 10^–5 M; read-out: GI (%)
From the text: as §1

SK-MEL-28 = conditions: Homo sapiens; SK-MEL-28, 10^–5 M; read-out: GI (%)
From the text: as §1

SK-MEL-2 = conditions: Homo sapiens; SK-MEL-2, 10^–5 M; read-out: GI (%)
From the text: as §1

SK-MEL-5 = conditions: Homo sapiens; SK-MEL-5, 10^–5 M; read-out: GI (%)
From the text: as §1

SK-OV-3 = conditions: Homo sapiens; SK-OV-3, 10^–5 M; read-out: GI (%)
From the text: as §1

SN12C = conditions: Homo sapiens, 10^–5 M, read-out: GI (%)
From the text: as §1

SNB-19 = conditions: Homo sapiens; SNB-19, 10^–5 M; read-out: GI (%)
From the text: as §1

SNB-75 = conditions: Homo sapiens; SNB-75, 10^–5 M; read-out: GI (%)
From the text: as §1

UACC-257 = conditions: Homo sapiens; UACC-257, 10^–5 M; read-out: GI (%)
From the text: as §1

SMILES	inhibition at 10 µM (A498) [%]	inhibition at 10 µM (A549/ATCC) [%]	inhibition at 10 µM (CAKI-1) [%]	inhibition at 10 µM (CCRF-CEM) [%]	inhibition at 10 µM (COLO205) [%]	inhibition at 10 µM (DU-145) [%]	inhibition at 10 µM (HCT-116) [%]	inhibition at 10 µM (HCT-15) [%]	inhibition at 10 µM (HS 578T) [%]	inhibition at 10 µM (HT-29) [%]	inhibition at 10 µM (KM12) [%]	inhibition at 10 µM (LOX IMVI) [%]	inhibition at 10 µM (M14) [%]	inhibition at 10 µM (MALME-3M) [%]	inhibition at 10 µM (MCF7) [%]	inhibition at 10 µM (MDA-MB-231/ATCC) [%]	inhibition at 10 µM (MDA-MB-435) [%]	inhibition at 10 µM (MOLT-4) [%]	inhibition at 10 µM (NCI-H23) [%]	inhibition at 10 µM (NCI-H522) [%]	also measured
N#Cc1ccc(C2C=C(Nc3ccc(I)cc3)C(=O)N2c2ccc(I)cc2)cc1 (stereo not drawn) [3l]	88	31	62	74	46	37	48	21	100	40	52	89	63	46	52	100	19	78	36	32	inhibition at 10 µM (786-0): 55%; inhibition at 10 µM (ACHN): 100%; inhibition at 10 µM (NCI/ADR-RES): 37%; inhibition at 10 µM (OVCAR-3): 60%; inhibition at 10 µM (OVCAR-4): 100%; inhibition at 10 µM (OVCAR-5): 11%; inhibition at 10 µM (PC-3): 45%; inhibition at 10 µM (RPMI-8226): 83%; inhibition at 10 µM (SF-268): 93%; inhibition at 10 µM (SF-539): 35%; inhibition at 10 µM (SK-MEL-28): 29%; inhibition at 10 µM (SK-MEL-2): 100%; inhibition at 10 µM (SK-MEL-5): 24%; inhibition at 10 µM (SK-OV-3): 75%; inhibition at 10 µM (SN12C): 59%; inhibition at 10 µM (SNB-19): 35%; inhibition at 10 µM (SNB-75): 100%; inhibition at 10 µM (UACC-257): 21%
COc1cc(OC)c(C2C=C(Nc3ccc(I)cc3)C(=O)N2c2ccc(I)cc2)cc1OC (stereo not drawn) [3k]	0	3	15	0	0	0	4	0	0	0	2	5	0	0	23	0	0	0	0	2	inhibition at 10 µM (786-0): 3%; inhibition at 10 µM (ACHN): 0%; inhibition at 10 µM (NCI/ADR-RES): 0%; inhibition at 10 µM (OVCAR-3): 0%; inhibition at 10 µM (OVCAR-4): 3%; inhibition at 10 µM (OVCAR-5): 0%; inhibition at 10 µM (PC-3): 0%; inhibition at 10 µM (RPMI-8226): 14%; inhibition at 10 µM (SF-268): 1%; inhibition at 10 µM (SF-539): 18%; inhibition at 10 µM (SK-MEL-28): 0%; inhibition at 10 µM (SK-MEL-2): 0%; inhibition at 10 µM (SK-MEL-5): 12%; inhibition at 10 µM (SK-OV-3): 0%; inhibition at 10 µM (SN12C): 2%; inhibition at 10 µM (SNB-19): 0%; inhibition at 10 µM (SNB-75): 0%; inhibition at 10 µM (UACC-257): 0%
O=C1C(Nc2ccc(I)cc2)=CC(c2ccc(Br)cc2)N1c1ccc(I)cc1 (stereo not drawn) [3d]	5	0	12	17	0	0	19	13	41	14	17	1	0	0	60	0	0	20	3	2	inhibition at 10 µM (786-0): 6%; inhibition at 10 µM (ACHN): 15%; inhibition at 10 µM (NCI/ADR-RES): 0%; inhibition at 10 µM (OVCAR-3): 5%; inhibition at 10 µM (OVCAR-4): 30%; inhibition at 10 µM (OVCAR-5): 0%; inhibition at 10 µM (PC-3): 0%; inhibition at 10 µM (RPMI-8226): 34%; inhibition at 10 µM (SF-268): 15%; inhibition at 10 µM (SF-539): 0%; inhibition at 10 µM (SK-MEL-28): 12%; inhibition at 10 µM (SK-MEL-2): 16%; inhibition at 10 µM (SK-MEL-5): 20%; inhibition at 10 µM (SK-OV-3): 0%; inhibition at 10 µM (SN12C): 15%; inhibition at 10 µM (SNB-19): 6%; inhibition at 10 µM (SNB-75): 3%; inhibition at 10 µM (UACC-257): 3%
O=C1C(Nc2ccc(I)cc2)=CC(c2ccc(O)cc2)N1c1ccc(I)cc1 (stereo not drawn) [3g]	48	22	41	94	42	58	61	84	100	96	80	44	52	83	83	44	38	100	45	70	inhibition at 10 µM (NCI/ADR-RES): 44%; inhibition at 10 µM (OVCAR-3): 59%; inhibition at 10 µM (OVCAR-4): 85%; inhibition at 10 µM (OVCAR-5): 24%; inhibition at 10 µM (PC-3): 73%; inhibition at 10 µM (RPMI-8226): 100%; inhibition at 10 µM (SF-268): 35%; inhibition at 10 µM (SF-539): 69%; inhibition at 10 µM (SK-MEL-28): 42%; inhibition at 10 µM (SK-MEL-2): 56%; inhibition at 10 µM (SK-MEL-5): 27%; inhibition at 10 µM (SK-OV-3): 25%; inhibition at 10 µM (SN12C): 60%; inhibition at 10 µM (SNB-19): 17%; inhibition at 10 µM (SNB-75): 77%; inhibition at 10 µM (UACC-257): 42%
COc1ccccc1C1C=C(Nc2ccc(I)cc2)C(=O)N1c1ccc(I)cc1 (stereo not drawn) [3i]	6	6	28	0	0	13	3	13	84	5	9	2	10	45	50	25	0	17	30	37	inhibition at 10 µM (NCI/ADR-RES): 3%; inhibition at 10 µM (OVCAR-3): 46%; inhibition at 10 µM (OVCAR-4): 60%; inhibition at 10 µM (OVCAR-5): 0%; inhibition at 10 µM (PC-3): 15%; inhibition at 10 µM (RPMI-8226): 32%; inhibition at 10 µM (SF-268): 24%; inhibition at 10 µM (SF-539): 31%; inhibition at 10 µM (SK-MEL-28): 12%; inhibition at 10 µM (SK-MEL-2): 44%; inhibition at 10 µM (SK-MEL-5): 4%; inhibition at 10 µM (SK-OV-3): 19%; inhibition at 10 µM (SN12C): 20%; inhibition at 10 µM (SNB-19): 0%; inhibition at 10 µM (SNB-75): 37%; inhibition at 10 µM (UACC-257): 13%
